From patent US20250345391A1, “COMPOSITIONS AND METHODS FOR THE TREATMENT OF SEPSIS” (Children's Hospital Medical Center, priority 2022, published 2025)

Legend:
[1] = system: Myeloperoxidase (MPO) activity in lung, kidneys and liver tissue; assay: Myeloperoxidase activity (neutrophil infiltration) in organs after CLP sepsis; format: in vivo, Male C57BL/6 mice; conditions: 6 h after CLP; colivelin 100 or 200 μg/kg i.p. at 1 h after CLP; vs vehicle; dose-independent
Excerpt: The investigation conformed to the National Institutes of Health Guide for the Care and Use of Laboratory Animals (Eighth Edition, 2011) and was approved by the Institutional Animal Care and Use Committee of the Cincinnati Children's Hospital Medical Center. Male C57BL/6 mice were obtained from Charles River Laboratories International, Inc. (Wilmington, MA). Mice were used at 3-5 months of age to mimic the equivalent for human ranges from 20-25 years (29). Male mice only were chosen for the experimentation to avoid interference from female hormonal fluctuations in sepsis responses during the estrous cycle. Mice were housed in pathogen-free conditions under a 10-h light/14-h dark cycle with free access to food and water. Mice were anesthetized with 2.0% isoflurane in 50% oxygen and polymicrobial sepsis was induced by cecal ligation and puncture (CLP) (30). After a midline laparotomy, the cecum was exteriorized, ligated and punctured twice with a 23-G needle. The cecum was then returned into the peritoneal cavity and the abdominal incision was closed. After the procedure, mice were randomly assigned to three treatment groups: a vehicle-treated group received distilled water (200 μl/mouse) intraperitoneally (i.p.); a 100 μg colivelin-treated group received the colivelin at 100 μg/kg i.p., and a 200 μg colivelin-treated group received the colivelin at 200 μg/kg i.p. at 1 h after CLP. The intraperitoneal injection was chosen to allow for a rapid uptake and bioavailability of the peptide. All groups of mice also received fluid resuscitation (35 ml/kg normal saline solution subcutaneously) immediately after, at 3 h and 12 h after the CLP procedure. […] Myeloperoxidase (MPO) activity was measured as an indicator of neutrophil infiltration in lung, kidneys and liver tissue. […] The rate of change in absorbance was measured by spectrophotometry at 650 nm. MPO activity was defined as the quantity of enzyme degrading 1 μmol of hydrogen peroxide/min at 37° C. and expressed in units per 100 mg weight of tissue.

[2] = system: syndecan-1; assay: Plasma syndecan-1 (glycocalyx damage) after CLP sepsis, ELISA; format: in vivo, Male C57BL/6 mice; conditions: 6 h after CLP; colivelin 100 or 200 μg/kg i.p. at 1 h after CLP; vs vehicle; dose-independent
Excerpt: The investigation conformed to the National Institutes of Health Guide for the Care and Use of Laboratory Animals (Eighth Edition, 2011) and was approved by the Institutional Animal Care and Use Committee of the Cincinnati Children's Hospital Medical Center. Male C57BL/6 mice were obtained from Charles River Laboratories International, Inc. (Wilmington, MA). Mice were used at 3-5 months of age to mimic the equivalent for human ranges from 20-25 years (29). Male mice only were chosen for the experimentation to avoid interference from female hormonal fluctuations in sepsis responses during the estrous cycle. Mice were housed in pathogen-free conditions under a 10-h light/14-h dark cycle with free access to food and water. […] Plasma levels of tumor necrosis factor-α (TNFα), interleukin (IL)-1β, IL-6, IL-10, keratinocytes-derived chemokine (KC), and macrophage inflammatory proteins (MIP-1α) were used as indices of the systemic inflammatory response and were evaluated by a commercially available multiplex array system (Milliplex, Millipore Corporation, Billerica, MA). Plasma levels of endoglin, intercellular adhesion molecule-1 (ICAM-1), P-selectin, proprotein convertase subtilisin/kexin type 9 (PCSK9), and angiopoietin-2 (Ang 2) were used as indices of endothelial injury and were evaluated by a commercially available multiplex array system (R&D Systems, Minneapolis, MN). […]

Colivelin (SALLRSIPAPAGASRLLLLTGEIDLP)
significantly decreased: MPO activity in kidneys [1] | MPO activity in liver [1] | MPO activity in lungs [1] | Levels of plasma syndecan-1 [2]
